Laboratory results from US20250214977A1, “STAT6 INHIBITORS AND USES THEREOF” (Kymera Therapeutics, Inc., priority 2024, published 2025).

System: Phosphorylation of STAT6 in human A549 cells
Test: Phosphorylated STAT6 (pSTAT6) flow cytometry assay in human A549 cells
Format: cell-based
Conditions: read-out: STAT6 IL4 pSTAT6 assay in A549 cells: Average IC50
Excerpt: Example 3. Phosphorylated STAT6 (pSTAT6) Flow Cytometry Assay in Human A549 Cells
Phosphorylation of STAT6 in human A549 cells was quantitatively measured using flow cytometry technology.

| SMILES | IC50 [nM] |
| --- | --- |
| CC(=O)N1CCC=C(c2cc(-c3ccccc3C)c3cc(C(=O)N(C)C)[nH]c3c2F)C1 [Example I-890] | 100 to 1000 |
| CC(=O)N1CCC=C(c2cc(-c3ccc(F)cc3O)c3cc(C(=O)N(C)C)[nH]c3c2F)C1 [Example I-891] | 100 to 1000 |
| CN(C)C(=O)c1cc2cc(C3=CCCN(C(=O)CCn4ccnn4)C3)cc(NCc3ccc(C(F)(F)F)nc3)c2o1 [Example I-893] | < 100 |
| Cc1cc(CNc2cc(C3=CCCN(C(=O)CCn4ccnn4)C3)cc3cc(C(=O)N(C)C)oc23)n(C)n1 [Example I-894] | 100 to 1000 |
| CN(C)C(=O)c1cc2cc(C3=CCCN(C(=O)CCn4ccnn4)C3)cc(NCc3ccc(C#N)cc3)c2o1 [Example I-895] | < 100 |
| CN(C)C(=O)c1cc2cc(C3=CCCN(C(=O)CCn4ccnn4)C3)cc(NC[C@@H]3CCC(=O)N3C)c2o1 [Example I-896] | 100 to 1000 |
| CC(=O)N1CCC=C(c2cc(-c3cnc4[nH]cc(C)c4c3)c3cc(C(=O)N(C)C)[nH]c3c2F)C1 [Example I-897] | 100 to 1000 |
| COc1ccccc1-c1cc(C2=CCCN(C(=O)CCn3ccnn3)C2)c(F)c2[nH]c(C(=O)N3CCC(N(C)C4CC4)C3)cc12 (centres unmarked) [Example I-898] | < 100 |
| COc1ccccc1-c1cc(C(=O)N(C)C)cc2cc(C3=CCCN(C(=O)CCn4ccnn4)C3)n(CC3CC3)c12 [Example I-899] | < 100 |
| COc1ccnc(N2CCN(C(=O)c3cc4c(-c5ccccc5OC)cc(C5=CCCN(C(=O)CCn6ccnn6)C5)c(F)c4[nH]3)CC2)c1 [Example I-900] | < 100 |
| COc1ccccc1-c1cc(C2=CCCN(C(=O)CCn3ccnn3)C2)c(F)c2[nH]c(C(=O)N3CCc4cccc(OC)c4C3)cc12 [Example I-901] | < 100 |
| COc1cccnc1N1CCN(C(=O)c2cc3ccc(C4=CCCN(C(C)=O)C4)c(F)c3[nH]2)CC1 [Example I-902] | 1000 to 10000 |
| CCOC(=O)c1cc2ccc(N3CCN(C(=O)c4cc5c(-c6ccccc6OC)cc(C6=CCCN(C(=O)CCn7ccnn7)C6)c(F)c5[nH]4)CC3)cn2c1 [Example I-903] | 100 to 1000 |
| COc1ccccc1-c1cc(C2=CCCN(C(=O)CCn3ccnn3)C2)c(F)c2[nH]c(C(=O)N3CCN(c4nccc(-c5ccccc5)n4)CC3)cc12 [Example I-904] | 100 to 1000 |
| COc1ccccc1-c1cc(C2=CCCN(C(=O)CCn3ccnn3)C2)c(F)c2[nH]c(C(=O)N3CCN(c4cn(C)c(=O)c5ccccc45)CC3)cc12 [Example I-905] | < 100 |
| COc1ccccc1-c1cc(C2=CCCN(C(=O)CCn3ccnn3)C2)c(F)c2[nH]c(C(=O)N3CCN(c4nccc(-c5cn(C)c6ccccc56)n4)CC3)cc12 [Example I-906] | < 100 |
| COc1ccccc1-c1cc(C2=CCCN(C(=O)CCn3ccnn3)C2)c(F)c2[nH]c(C(=O)N3CCN(c4cc(F)c(F)c5ccc(C)nc45)CC3)cc12 [Example I-907] | < 100 |
| COc1ccccc1-c1cc(C2=CCCN(C(=O)CCn3ccnn3)C2)c(F)c2[nH]c(C(=O)N3CCN(c4ccnnc4O)CC3)cc12 [Example I-908] | < 100 |
| COc1ccccc1-c1cc(C2=CCCN(C(=O)CCn3ccnn3)C2)c(F)c2[nH]c(C(=O)N3CCN(c4cc(C)c5ncnn5c4)CC3)cc12 [Example I-909] | < 100 |

| SMILES | IC50 [nM] |
| --- | --- |
| COc1ccccc1-c1cc(C2=CCCN(C(=O)CCn3ccnn3)C2)c(F)c2[nH]c(C(=O)N3CCN(c4cnc(SC)n5cnnc45)CC3)cc12 [Example I-910] | < 100 |
| COc1ccccc1-c1cc(C2=CCCN(C(=O)CCn3ccnn3)C2)c(F)c2[nH]c(C(=O)N3CCN(C)C(c4ccccc4)C3)cc12 (centres unmarked) [Example I-911] | 100 to 1000 |
| COc1ccccc1-c1cc(C2=CCCN(C(=O)CCn3ccnn3)C2)c(F)c2[nH]c(C(=O)N3CC4CN(c5ncccc5OC)CC4C3)cc12 (centres unmarked) [Example I-912] | 100 to 1000 |
| COc1ccccc1-c1cc(C2=CCCN(C(=O)CCn3ccnn3)C2)c(F)c2[nH]c(C(=O)N3CCN(c4c(C)cccc4OC)CC3)cc12 [Example I-913] | 100 to 1000 |
| COc1ccccc1-c1cc(C2=CCCN(C(=O)CCn3ccnn3)C2)c(F)c2[nH]c(C(=O)N3CCN(c4ccnc5c4CC(=O)N5)CC3)cc12 [Example I-914] | < 100 |
| COc1ccccc1-c1cc(C2=CCCN(C(=O)CCn3ccnn3)C2)c(F)c2[nH]c(C(=O)N3CCN(c4cn5ccnc5cc4C)CC3)cc12 [Example I-915] | < 100 |
| COc1ccccc1-c1cc(C2=CCCN(C(=O)CCn3ccnn3)C2)c(F)c2[nH]c(C(=O)N3CCN(c4nc5ccccc5c5ccccc45)CC3)cc12 [Example I-916] | 100 to 1000 |
| COc1ccccc1-c1cc(C2=CCCN(C(=O)CCn3ccnn3)C2)c(F)c2[nH]c(C(=O)N3CCN(c4cc(OC)c5ccnn5c4)CC3)cc12 [Example I-917] | < 100 |
| COc1ccccc1-c1cc(C2=CCCN(C(=O)CCn3ccnn3)C2)c(F)c2[nH]c(C(=O)N3CCN(c4ccc5c(c4)C=NCC5)CC3)cc12 [Example I-918] | < 100 |
| COc1ccccc1-c1cc(C2=CCCN(C(=O)CCn3ccnn3)C2)c(F)c2[nH]c(C(=O)N3CCN(c4ccn5nc(C)nc5c4)CC3)cc12 [Example I-919] | < 100 |
| COc1ccccc1-c1cc(C2=CCCN(C(=O)CCn3ccnn3)C2)c(F)c2[nH]c(C(=O)N3CCN(c4ncnc5ncn(C)c45)CC3)cc12 [Example I-920] | < 100 |
| COc1ccccc1-c1cc(C2=CCCN(C(=O)CCn3ccnn3)C2)c(F)c2[nH]c(C(=O)N3CCN(c4cc(C)cc5c[nH]nc45)CC3)cc12 [Example I-921] | 100 to 1000 |
| COc1ccccc1-c1cc(C2=CCCN(C(=O)CCn3ccnn3)C2)c(F)c2[nH]c(C(=O)N3CCN(c4ccc(OC)c(OC)c4OC)CC3)cc12 [Example I-922] | 100 to 1000 |
| COc1ccccc1-c1cc(C2=CCCN(C(=O)CCn3ccnn3)C2)c(F)c2[nH]c(C(=O)N3CCN(c4nc(C)nc5ccccc45)CC3)cc12 [Example I-923] | < 100 |
| COc1ccccc1-c1cc(C2=CCCN(C(=O)CCn3ccnn3)C2)c(F)c2[nH]c(C(=O)N3CCN(c4cc5cccnc5cc4F)CC3)cc12 [Example I-924] | < 100 |
| COc1ccccc1-c1cc(C2=CCCN(C(=O)CCn3ccnn3)C2)c(F)c2[nH]c(C(=O)N3CCN(c4cc5cnn(C)c5cc4C)CC3)cc12 [Example I-925] | 100 to 1000 |
| COc1cc(N2CCN(C(=O)c3cc4c(-c5ccccc5OC)cc(C5=CCCN(C(=O)CCn6ccnn6)C5)c(F)c4[nH]3)CC2)c2ccnn2c1 [Example I-926] | < 100 |
| COc1ccccc1-c1cc(C2=CCCN(C(=O)CCn3ccnn3)C2)c(F)c2[nH]c(C(=O)N3CCN(c4cccc(OC(F)F)n4)CC3)cc12 [Example I-927] | 100 to 1000 |
| COc1ccccc1-c1cc(C2=CCCN(C(=O)CCn3ccnn3)C2)c(F)c2[nH]c(C(=O)N3CCN(c4c(C)ccc5c4cnn5C)CC3)cc12 [Example I-928] | < 100 |

| SMILES | IC50 [nM] |
| --- | --- |
| COc1ccccc1-c1cc(C2=CCCN(C(=O)CCn3ccnn3)C2)c(F)c2[nH]c(C(=O)N3CCN(c4ncnc5cccc(F)c45)CC3)cc12 [Example I-929] | < 100 |
| COc1ccccc1-c1cc(C2=CCCN(C(=O)CCn3ccnn3)C2)c(F)c2[nH]c(C(=O)N3CCN(c4cc(O)cc5ccccc45)CC3)cc12 [Example I-930] | 100 to 1000 |
| CCOC(=O)c1ccc(N2CCN(C(=O)c3cc4c(-c5ccccc5OC)cc(C5=CCCN(C(=O)CCn6ccnn6)C5)c(F)c4[nH]3)CC2)cc1 [Example I-931] | 100 to 1000 |
| COc1ccccc1-c1cc(C2=CCCN(C(=O)CCn3ccnn3)C2)c(F)c2[nH]c(C(=O)N3CCN(c4ccc(C(F)(F)F)cc4F)CC3)cc12 [Example I-932] | 100 to 1000 |
| COc1ccccc1-c1cc(C2=CCCN(C(=O)CCn3ccnn3)C2)c(F)c2[nH]c(C(=O)N3CCN(c4ccn(C)n4)CC3)cc12 [Example I-933] | < 100 |
| COc1ccccc1-c1cc(C2=CCCN(C(=O)CCn3ccnn3)C2)c(F)c2[nH]c(C(=O)N3CCN(c4cc(F)ccn4)CC3)cc12 [Example I-934] | < 100 |
| COc1ccccc1-c1cc(C2=CCCN(C(=O)CCn3ccnn3)C2)c(F)c2[nH]c(C(=O)N3CCN(c4cc(C(F)(F)F)ccn4)CC3)cc12 [Example I-935] | < 100 |
| COc1ccccc1-c1cc(C2=CCCN(C(=O)CCn3ccnn3)C2)c(F)c2[nH]c(C(=O)N3CCN(c4cccc5cncn45)CC3)cc12 [Example I-936] | < 100 |
| COc1ccccc1-c1cc(C2=CCCN(C(=O)CCn3ccnn3)C2)c(F)c2[nH]c(C(=O)N3CCN(c4cccc(C(F)(F)F)n4)CC3)cc12 [Example I-937] | 100 to 1000 |
| O=C(CCn1ccnn1)N1CCC=C(c2cc(-c3ccccc3)c3cc(C(=O)N4CCN(c5ncccc5OC5CC5)CC4)[nH]c3c2F)C1 [Example I-938] | < 100 |
| COc1ccccc1-c1cc(C2=CCCN(C(=O)CCn3ccnn3)C2)c(F)c2[nH]c(C(=O)N3CCN(c4ncc(C)cc4OC)CC3)cc12 [Example I-939] | < 100 |
| COc1ccccc1-c1cc(C2=CCCN(C(=O)CCn3ccnn3)C2)c(F)c2[nH]c(C(=O)N3CCN(c4ncc(C#N)cc4OC)CC3)cc12 [Example I-940] | < 100 |
| COc1ccccc1-c1cc(C2=CCCN(C(=O)CCn3ccnn3)C2)c(F)c2[nH]c(C(=O)N3CCN(c4ncc(C(F)(F)F)cc4OC)CC3)cc12 [Example I-941] | < 100 |
| CCn1c(N2CCN(C(=O)c3cc4c(-c5ccccc5OC)cc(C5=CCCN(C(=O)CCn6ccnn6)C5)c(F)c4[nH]3)CC2)nc2ccccc21 [Example I-942] | < 100 |
| COc1ccccc1-c1cc(C2=CCCN(C(=O)CCn3ccnn3)C2)c(F)c2[nH]c(C(=O)N3CCN(c4nc5ccccc5n4CC4CC4)CC3)cc12 [Example I-943] | < 100 |
| COc1ccccc1-c1cc(C2=CCCN(C(=O)CCn3ccnn3)C2)c(F)c2[nH]c(C(=O)N3CCN(c4cnc5nccnc5c4C)CC3)cc12 [Example I-944] | < 100 |
| COc1ccccc1-c1cc(C2=CCCN(C(=O)CCn3ccnn3)C2)c(F)c2[nH]c(C(=O)N3CCN(c4ccc5nn(C)cc5c4C)CC3)cc12 [Example I-945] | 100 to 1000 |
| COc1ccccc1-c1cc(C2=CCCN(C(=O)CCn3ccnn3)C2)c(F)c2[nH]c(C(=O)N3CCN(c4ncnc5[nH]cnc45)CC3)cc12 [Example I-946] | < 100 |
